ChEMBL document CHEMBL1201862, “PubChem BioAssay data set” (2004)
Values belong to the compound of their own block, whether it stands above or below them. Activity calls are given as the source filed them.

Experiments:
[1] = target: T1, Tyrosine-protein phosphatase non-receptor type 7 (Homo sapiens, UniProt P35236); format: functional
T1 sequence (P35236 whole entry): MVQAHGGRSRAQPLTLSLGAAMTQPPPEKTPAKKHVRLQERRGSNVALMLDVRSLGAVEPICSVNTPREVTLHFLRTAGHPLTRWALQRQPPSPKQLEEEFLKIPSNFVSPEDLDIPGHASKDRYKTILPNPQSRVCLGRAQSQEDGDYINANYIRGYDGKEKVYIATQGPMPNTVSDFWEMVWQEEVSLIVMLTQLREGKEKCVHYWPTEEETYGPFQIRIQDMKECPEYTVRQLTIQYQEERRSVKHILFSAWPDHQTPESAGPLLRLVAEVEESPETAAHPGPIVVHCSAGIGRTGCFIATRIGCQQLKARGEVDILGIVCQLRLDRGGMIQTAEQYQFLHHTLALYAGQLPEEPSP

[2] = target: Luciferin 4-monooxygenase (Photinus pyralis, UniProt P08659); test: firefly luciferase enzyme inhibitors, dose response, biochemical, luminescence (AID 1891)
Luciferin 4-monooxygenase, sequence (P08659 whole entry): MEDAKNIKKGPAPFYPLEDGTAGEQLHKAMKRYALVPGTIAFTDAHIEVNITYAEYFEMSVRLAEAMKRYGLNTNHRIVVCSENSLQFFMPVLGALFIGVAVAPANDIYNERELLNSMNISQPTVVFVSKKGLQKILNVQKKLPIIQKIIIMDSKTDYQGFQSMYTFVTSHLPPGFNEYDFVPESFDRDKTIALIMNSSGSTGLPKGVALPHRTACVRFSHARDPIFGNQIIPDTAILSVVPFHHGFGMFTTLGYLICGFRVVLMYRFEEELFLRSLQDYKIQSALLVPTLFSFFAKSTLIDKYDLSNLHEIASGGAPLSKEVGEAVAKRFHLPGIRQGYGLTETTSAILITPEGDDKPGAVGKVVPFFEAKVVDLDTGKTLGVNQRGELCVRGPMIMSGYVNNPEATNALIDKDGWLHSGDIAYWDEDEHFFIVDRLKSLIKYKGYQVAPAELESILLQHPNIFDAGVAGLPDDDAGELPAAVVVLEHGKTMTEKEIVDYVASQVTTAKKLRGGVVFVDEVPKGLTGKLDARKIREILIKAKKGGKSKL

[3] = Luminescence Cell-Based Dose Confirmation HTS to Identify Inhibitors of Platelet Dense Granule Release. [Related pubchem assays: 1663 (Primary HTS), 1678 (Summary of Project)]; format: functional
[4] = target: T2, Tyrosine-protein phosphatase non-receptor type 22 (Homo sapiens, UniProt Q9Y2R2); format: functional
T2 sequence (Q9Y2R2 whole entry): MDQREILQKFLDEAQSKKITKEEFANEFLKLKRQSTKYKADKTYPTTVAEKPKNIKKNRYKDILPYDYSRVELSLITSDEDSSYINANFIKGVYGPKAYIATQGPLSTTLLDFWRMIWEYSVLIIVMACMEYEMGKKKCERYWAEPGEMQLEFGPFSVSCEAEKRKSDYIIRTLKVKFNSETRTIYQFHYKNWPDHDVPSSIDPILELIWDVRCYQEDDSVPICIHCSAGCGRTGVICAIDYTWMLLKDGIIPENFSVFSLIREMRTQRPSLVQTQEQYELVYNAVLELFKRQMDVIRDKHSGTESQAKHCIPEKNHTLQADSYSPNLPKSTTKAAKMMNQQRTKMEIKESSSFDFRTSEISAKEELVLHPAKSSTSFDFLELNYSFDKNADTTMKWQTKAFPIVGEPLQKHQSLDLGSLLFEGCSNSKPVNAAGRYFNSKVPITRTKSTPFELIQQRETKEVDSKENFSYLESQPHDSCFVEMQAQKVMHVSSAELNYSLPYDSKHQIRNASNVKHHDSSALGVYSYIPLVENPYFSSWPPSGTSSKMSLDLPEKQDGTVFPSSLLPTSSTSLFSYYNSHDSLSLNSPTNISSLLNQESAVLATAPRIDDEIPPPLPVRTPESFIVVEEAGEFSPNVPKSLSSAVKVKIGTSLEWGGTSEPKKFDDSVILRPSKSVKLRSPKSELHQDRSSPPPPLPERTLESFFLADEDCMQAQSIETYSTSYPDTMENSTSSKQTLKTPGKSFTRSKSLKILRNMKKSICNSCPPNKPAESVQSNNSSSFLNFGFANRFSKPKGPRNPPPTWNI

[5] = target: T2, Tyrosine-protein phosphatase non-receptor type 22; format: functional; remark: listed apart in the source
[6] = inhibitors of intracellular T. cruzi replication, confirmation, NIH3T3 host cells, beta-gal luminescence (AID 2044); format: functional, cell-based;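 further: intracellular parasites grown in NIH/3T3 mouse fibroblasts as host cells; luminescent beta-galactosidase reporter signal from transgenic T. cruzi replicating inside host cells; inhibitors lower the luminescence signal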
[7] = cytotoxicity toward NIH3T3 fibroblasts, dose response, counter-screen, cell-based, ATP luminescence, mouse fibroblasts (AID 2010); format: functional;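 further: cells exposed to compound for about 90 hours before reading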
[8] = Luminescence Cell-Based Dose Retest to Confirm Inhibitors of Cancer Stem Cells. [Related pubchem assays (depositor defined):AID2717, AID2721]; format: functional; settings: Homo sapiens
Jurkat = test: antigen receptor-induced NF-kB inhibitors, dose response, Jurkat, luciferase reporter, luminescence, B- and T-cell (AID 489004); format: functional, cell-based; settings: Homo sapiens;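 further: NF-kB luciferase reporter Jurkat cells stimulated with PMA plus ionomycin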
[9] = cytotoxicity in HEK-293T NF-kB-Luc cells, dose response, cytotoxicity control for B/T-cell NF-kB inhibitor project, cell-based, uHTS hits (AID 489019); format: functional;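 further: IC50 reflects cytotoxicity as loss of cell viability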
INS1 = test: beta cell apoptosis inhibitors, cytokine rescue, dose response, luminescence, retest (AID 449756); format: functional, cell-based; settings: Rattus norvegicus;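 further: cell death triggered by IL-1 beta plus TNF-alpha plus IFN-gamma mixture; protective hits raise ATP signal compared with cytokine alone wells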
[10] = Shn3 3'UTR reporter inhibitors, dose response, cell-based, Clone20 osteoblasts, firefly luciferase, cherry-picked (AID 624132); format: functional;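 further: firefly luciferase luminescence from reporter carrying the Shn3 3'UTR in osteoblasts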
[11] = HepG2 cell cytotoxicity, dose response, cytotoxicity control for Shn3 inhibitor project, CellTiter-Glo, cherry-picked (AID 624134); format: functional, cell-based
[12] = control 3'UTR Renilla luciferase suppression, dose response, counter-screen for Shn3 inhibitor project, cell-based, Clone20-Shn3RL, cherry-picked (AID 624133); format: functional
HEK293 [13] = test: cells; settings: Homo sapiens
HEK293 [14] = test: cells; settings: Homo sapiens; remark: listed apart in the source
Large T antigen = Large T antigen (Simian virus 40, UniProt P03070); format: functional, Betapolyomavirus macacae;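 further: Confirmatory-stage PubChem screen for compounds that inhibit SV40 T antigen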
Large T antigen, sequence (P03070 whole entry): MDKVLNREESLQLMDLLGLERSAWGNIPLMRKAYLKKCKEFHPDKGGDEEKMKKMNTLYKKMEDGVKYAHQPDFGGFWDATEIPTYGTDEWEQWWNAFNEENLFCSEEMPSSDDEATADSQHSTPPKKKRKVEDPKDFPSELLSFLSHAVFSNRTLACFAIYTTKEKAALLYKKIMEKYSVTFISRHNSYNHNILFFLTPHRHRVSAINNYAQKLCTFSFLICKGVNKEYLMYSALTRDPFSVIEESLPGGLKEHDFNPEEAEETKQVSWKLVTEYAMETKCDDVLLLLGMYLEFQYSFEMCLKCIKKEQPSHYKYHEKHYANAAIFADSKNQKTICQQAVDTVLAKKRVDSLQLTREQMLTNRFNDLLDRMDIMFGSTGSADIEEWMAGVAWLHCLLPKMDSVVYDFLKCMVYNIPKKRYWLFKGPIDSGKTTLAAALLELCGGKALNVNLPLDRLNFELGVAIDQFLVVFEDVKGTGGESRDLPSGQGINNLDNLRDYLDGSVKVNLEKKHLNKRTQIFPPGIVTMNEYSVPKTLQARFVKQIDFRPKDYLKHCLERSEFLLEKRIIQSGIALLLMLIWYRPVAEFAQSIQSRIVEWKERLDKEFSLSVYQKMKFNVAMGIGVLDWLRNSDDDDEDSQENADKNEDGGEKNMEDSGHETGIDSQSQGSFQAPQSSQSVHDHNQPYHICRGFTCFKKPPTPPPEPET

[15] = target: Alkaline phosphatase, placental type (Homo sapiens, UniProt P05187); test: PLAP enzyme inhibitors, confirmation, biochemical, luminescence (AID 1512); format: functional
Alkaline phosphatase, placental type, sequence (P05187 whole entry): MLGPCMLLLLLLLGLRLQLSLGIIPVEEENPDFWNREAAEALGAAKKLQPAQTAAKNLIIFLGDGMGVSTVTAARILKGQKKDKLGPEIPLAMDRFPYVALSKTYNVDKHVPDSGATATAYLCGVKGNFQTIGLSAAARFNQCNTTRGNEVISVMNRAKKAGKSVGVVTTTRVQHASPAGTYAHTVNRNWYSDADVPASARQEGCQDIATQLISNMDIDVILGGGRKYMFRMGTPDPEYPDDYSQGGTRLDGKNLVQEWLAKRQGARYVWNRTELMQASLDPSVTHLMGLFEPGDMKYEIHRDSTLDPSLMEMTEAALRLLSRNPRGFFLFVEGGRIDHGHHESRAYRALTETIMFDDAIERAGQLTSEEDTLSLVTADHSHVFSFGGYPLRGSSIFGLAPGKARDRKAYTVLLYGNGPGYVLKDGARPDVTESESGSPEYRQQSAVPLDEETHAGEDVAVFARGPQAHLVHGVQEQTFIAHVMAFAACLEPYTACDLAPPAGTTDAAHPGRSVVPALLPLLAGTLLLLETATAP

[16] = target: T3, Alkaline phosphatase, tissue-nonspecific isozyme (Homo sapiens, UniProt P05186); test: human TNAP enzyme inhibitors, SAR follow-up, biochemical, luminescent, dose response (AID 1056)
T3 sequence (P05186 whole entry): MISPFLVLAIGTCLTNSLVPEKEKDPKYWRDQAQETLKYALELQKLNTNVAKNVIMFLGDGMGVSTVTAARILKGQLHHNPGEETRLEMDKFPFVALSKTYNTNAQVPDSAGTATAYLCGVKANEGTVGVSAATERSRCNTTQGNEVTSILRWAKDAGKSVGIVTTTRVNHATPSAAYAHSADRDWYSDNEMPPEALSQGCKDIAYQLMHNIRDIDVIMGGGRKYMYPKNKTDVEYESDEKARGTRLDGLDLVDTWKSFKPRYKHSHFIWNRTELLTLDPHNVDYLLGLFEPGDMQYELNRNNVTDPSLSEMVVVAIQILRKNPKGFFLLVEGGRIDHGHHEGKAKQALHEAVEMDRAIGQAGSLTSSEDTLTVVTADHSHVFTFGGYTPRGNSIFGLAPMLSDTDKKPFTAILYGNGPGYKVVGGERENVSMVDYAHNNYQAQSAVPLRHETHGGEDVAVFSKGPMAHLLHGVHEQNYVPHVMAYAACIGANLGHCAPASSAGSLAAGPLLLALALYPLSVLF

SMILES: COC(=O)C(C(=O)NCC1CCCO1)C1CCCCCC1 (configuration not stated)
IC50 [1]: > 79.4 µM (inactive) | EC50 [2]: > 112 µM (not active) | EC50 [3]: > 112 µM (not active) | IC50 [4]: > 79.4 µM (inactive) | IC50 [5]: > 79.4 µM (inactive)

SMILES: Cc1sc2ncnc(N3CCN(CCOc4ccc(Cl)cc4)CC3)c2c1C
EC50 [6]: 2.29 µM (active) | EC50 [7]: > 30 µM (not active) | AC50 [8]: 5.5 µM (active) | IC50 (Jurkat): 64.1 µM (inactive) | IC50 [9]: > 80 µM (inactive) | AC50 (INS1): 2.74 µM (active) | AC50 [10]: 1.35 µM (active) | AC50 [11]: 3.27 µM (active) | AC50 [12]: 6.27 µM (active)

IC50 [1]: > 79.4 µM (inactive) | IC50 [4]: > 79.4 µM (inactive) | IC50 [5]: > 79.4 µM (inactive)
SMILES: Cc1cc(Cl)ccc1OCC(=O)OCC(=O)Nc1ccc(F)c([N+](=O)[O-])c1

SMILES: CC(C)Cc1cc(-c2ccco2)c(C#N)c(N)n1
EC50 (HEK293 [13]): > 59.6 µM (inactive) | EC50 (HEK293 [14]): > 59.6 µM (inactive)

IC50 (Large T antigen): > 100 µM (active) | IC50 [15]: 4.9 µM (active) | IC50 [16]: > 100 µM (inactive)
SMILES: Cn1c(SCC(=O)c2ccc(O)c(O)c2)nnc1-c1cccs1
